Reference: US6110491A, “Compound-loaded liposomes and methods for their preparation” (Hermes Biosciences, Inc., priority 1997, dated 2000)

How the values were obtained:
[1] = Doxorubicin loading into liposomes with entrapped sodium salts of sulfuric, phosphoric, polyvinylsulfuric or polyphosphoric acid, without or with nigericin (Examples 4, 5); type: physicochemical
Protocol: Liposomes were prepared from egg phosphatidylcholine using the procedure identical to Example 1 but instead of polyacrylic acid, the inner buffers contained one of the following salts: sodium sulfate, sodium phosphate, sodium polyvinylsulfate (Fluka, Ronkonkoma, N.Y.; average chain length n=13), or sodium polyphosphate (Sigma Chemical Co.; average chain length n=13-18), at a concentration of 100 mill-equivalents of sodium/L. The liposomes were incubated with doxorubicin (300 nmol/μmol of phospholipid) overnight, free drug was removed from the liposomes, and the liposomes were assayed as described in Example 1. Drug incorporation into the liposomes was as follows (in nmol/μmol of phospholipid): sodium sulfate, 82.1±0.95; sodium phosphate, 76.8±2.3; sodium polyvinylsulfate, 109.8±0.25; sodium polyphosphate, 85.2±2.2; "blank" liposomes, containing 100 mM sodium chloride, 1.03±0.06.
Liposomes were prepared and loading with doxorubicin as in Example 4, except that prior to drug loading, nigericin was added to the liposomes at a concentration of 5 μmol/L. The following drug incorporation (nmol/μmol of phospholipid) was obtained in the liposomes containing: sodium sulfate, 96.5±1.9; sodium phosphate, 271.9±3.8; sodium polyvinylsulfate, 133.7±1.9; sodium polyphosphate, 169.7±2.7.

[2] = Doxorubicin precipitation by Inner Buffer anions (Example 9); type: physicochemical; settings: for Doxorubicin precipitation: 1 mg/ml, 22° C., 3 hours
Protocol: Doxorubicin hydrochloride was added to the aliquots of Inner Buffers described in the Example 8 above to achieve final concentration of 1 mg/ml. The mixtures were briefly incubated at 60° C. to effect maximum drug dissolution, and further equilibrated at ambient temperature (22° C.) with gentle shaking for 3 hours. Precipitated doxorubicin was separated by centrifugation of an Eppendorf centrifuge (10,000 rpm, 5 min.), and the amount of doxorubicin in supernatant fluid was determined by spectrophotometry. The percent of drug precipitation was calculated as 100% less the percent of doxorubicin remaining in the supernatant fluid relative to the total added doxorubicin.

[3] = liposomes loaded by the ammonium ion method (Haran, et al., 1993); cited from earlier work
[4] = Doxorubicin loading into liposomes with entrapped anions essentially free from transmembrane pH or ammonium ion gradients (Example 8); type: physicochemical; settings: 36° C., 12 hours
Protocol: Aqueous solutions containing ammonium salts of hydrochloric, nitric, methanesulfonic, L(+)-tartaric, citric, sulfuric, phosphoric, diethylenetriamine pentaacetic (DTPA), or polyacrylic (Mol. weight. 2,000) acids were prepared by titration of the respective acids in water with the standard aqueous solution of ammonium hydroxide to achieve pH 7.3±0.05,followed by volume adjustment to achieve 0.2 equivalent/L of ammonium ion, and, if necessary, by addition of dry sucrose to achieve osmolarity of 377 mmol/kg. (These solutions are hereinafter referred to as Inner Buffers). All solutions additionally contained 10 mM hydroxyethylpiperazinoethane sulfonic acid (HEPES) to stabilize the pH at titration endpoint. To afford determination of intraliposomal pH, a fluorescence indicator 8-hydroxypyrene trisulfonate was added to the solutions to the final concentration of 0.2 mM. Liposomes containing entrapped ammonium salt solutions as above were prepared from egg phosphatidyl choline, cholesterol, and PEG-DSPE as described in the Example 7, except that lipid hydration and extrusion were carried out at room temperature. The bulk aqueous phases of liposome preparations were exchanged by gel-filtration for an aqueous solution (Outer buffer) containing 0.2 M ammonium chloride, 10 mM HEPES, pH 7.3, osmolarity 377 mmol/kg, to obtain liposome preparations substantially without transmembrane ammonium-ion gradients. Loading of doxorubicin was performed as in Example 7, except that it was at 36° C. for 12 hours. Intraliposomal pH was determined using HPTS fluorescence method (Straubinger, et al., 1990) prior to drug loading, and indicated essentially no inside-outside pH gradient (less than 0.2 pH units), compared with the gradient of several pH units typical for ammonium ion gradient liposomes (Haran, et al., 1993). The following results were obtained (nd, not determined)

[5] = inner buffer anion L(+)-tartrate
[6] = inner buffer anion methanesulfonate
[7] = inner buffer anion polyacrylate

## COc1cccc2c1C(=O)c1c(O)c3c(c(O)c1C2=O)C[C@@](O)(C(=O)CO)C[C@@H]3O[C@H]1C[C@H](N)[C@H](O)[C@H](C)O1 [doxorubicin]
[1]; "blank" liposomes containing 100 mM sodium chloride, doxorubicin 300 nmol/μmol
  Drug incorporation into the liposomes: 1.03±0.06 nmol/μmol of phospholipid
[1]; entrapped sodium phosphate, doxorubicin 300 nmol/μmol, overnight, no nigericin
  Drug incorporation into the liposomes: 76.8±2.3 nmol/μmol of phospholipid
[1]; entrapped sodium phosphate, nigericin 5 μmol/L
  Drug incorporation into the liposomes: 271.9±3.8 nmol/μmol of phospholipid
[1]; entrapped sodium polyphosphate, doxorubicin 300 nmol/μmol, overnight, no nigericin
  Drug incorporation into the liposomes: 85.2±2.2 nmol/μmol of phospholipid
[1]; entrapped sodium polyphosphate, nigericin 5 μmol/L
  Drug incorporation into the liposomes: 169.7±2.7 nmol/μmol of phospholipid
[1]; entrapped sodium polyvinylsulfate, doxorubicin 300 nmol/μmol, overnight, no nigericin
  Drug incorporation into the liposomes: 109.8±0.25 nmol/μmol of phospholipid
[1]; entrapped sodium polyvinylsulfate, nigericin 5 μmol/L
  Drug incorporation into the liposomes: 133.7±1.9 nmol/μmol of phospholipid
[1]; entrapped sodium sulfate, doxorubicin 300 nmol/μmol, overnight, no nigericin
  Drug incorporation into the liposomes: 82.1±0.95 nmol/μmol of phospholipid
[1]; entrapped sodium sulfate, nigericin 5 μmol/L
  Drug incorporation into the liposomes: 96.5±1.9 nmol/μmol of phospholipid
[1]; permeabilization of liposome membrane by nigericin 5 μmol/L
  Effect of nigericin on drug loading: did not decrease drug loading
[2]; Examples 8 and 9
  correlation coefficient R, extent of drug loading vs. drug solubility in Inner Buffer: 0.9043
[2]; inner buffer anion DTPA
  Doxorubicin precipitation: 58.1%
[2]; [5]
  Doxorubicin precipitation: 25.0%
[2]; inner buffer anion chloride
  Doxorubicin precipitation: 1.1%
[2]; inner buffer anion citrate
  Doxorubicin precipitation: 81.4%
[2]; [6]
  Doxorubicin precipitation: 0%
[2]; inner buffer anion nitrate
  Doxorubicin precipitation: 0%
[2]; inner buffer anion phosphate
  Doxorubicin precipitation: 73.7%
[2]; [7]
  Doxorubicin precipitation: 98.4%
[2]; inner buffer anion sulfate
  Doxorubicin precipitation: 47.5%
[3]
  Doxorubicin release by nigericin: quickly releases
[4]; inner buffer anion DTPA
  Doxorubicin incorporation into liposomes: 40.8 mg of drug/mmol of liposome ph
[4]; [5]
  Doxorubicin incorporation into liposomes: 27.5 mg of drug/mmol of liposome ph
[4]; inner buffer anion chloride
  Doxorubicin incorporation into liposomes: 16.8 mg of drug/mmol of liposome ph
[4]; inner buffer anion citrate
  Doxorubicin incorporation into liposomes: 97.9 mg of drug/mmol of liposome ph
[4]; [6]
  Doxorubicin incorporation into liposomes: 17.1 mg of drug/mmol of liposome ph
[4]; inner buffer anion nitrate
  Doxorubicin incorporation into liposomes: 12.4 mg of drug/mmol of liposome ph
[4]; inner buffer anion phosphate
  Doxorubicin incorporation into liposomes: 68.1 mg of drug/mmol of liposome ph
[4]; [7]
  Doxorubicin incorporation into liposomes: 142.7 mg of drug/mmol of liposome ph
[4]; inner buffer anion sulfate
  Doxorubicin incorporation into liposomes: 33.5 mg of drug/mmol of liposome ph
